We go through 47 compounds from patent US11040954B1, “CXCR3 receptor agonists” (RECEPTOS LLC, priority 2016, dated 2021).

As a reminder, the EC50 is the concentration that produces a half-maximal response.

The structures appear in SMILES notation.

This assay addresses T1, CXCR3 (Homo sapiens, UniProt P49682).
T1 construct: host or cells: CHO-K1 (cAMP Hunter CHOK1 CXCR3 Gi cell line)
T1 sequence (P49682 1-368): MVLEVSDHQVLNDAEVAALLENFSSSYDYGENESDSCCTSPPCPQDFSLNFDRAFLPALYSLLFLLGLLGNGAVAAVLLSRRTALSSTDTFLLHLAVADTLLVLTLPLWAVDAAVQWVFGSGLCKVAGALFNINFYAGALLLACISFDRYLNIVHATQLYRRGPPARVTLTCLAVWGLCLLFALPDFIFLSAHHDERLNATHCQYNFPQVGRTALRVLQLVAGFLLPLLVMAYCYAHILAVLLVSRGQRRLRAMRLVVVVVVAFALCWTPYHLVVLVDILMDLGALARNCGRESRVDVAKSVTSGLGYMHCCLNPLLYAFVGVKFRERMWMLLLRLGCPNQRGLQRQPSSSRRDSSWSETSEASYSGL
Put plainly: CXCR3 cAMP agonist assay (cAMP Hunter CHOK1 CXCR3 Gi cell line, forskolin-stimulated, HitHunter cAMP detection). Type of assay: cell-based. Particulars: cAMP Hunter CHOK1 CXCR3 Gi cells, 20 μM forskolin, 30 minutes; read-out: Activity (CXCR3 cAMP agonist assay compound EC50). In short, it runs like this:
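CHOK1 cells expressing human CXCR3 with Gi coupling, 50,000/well in suspension in HBSS/10 mM HEPES/0.1% BSA pH 7.4, were co-treated with 20 μM forskolin and compound (12-point, 0-10 μM, 1% DMSO) for 30 min. cAMP was read by enzyme-complementation luminescence; CXCL11 dose response set maximum efficacy.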
For the compound `Cc1cc(NC(=O)[C@H](CCN)NC(=O)[C@@H]2Cc3ccccc3CN2C(=O)CCC(=O)N2CCCC(C)(C)C2)ncc1Cl` [Compound 12-155], the EC50 is below 50 nM.
Turning to `Cc1cc(NC(=O)[C@H](CCN)NC(=O)[C@@H]2Cc3ccccc3CN2C(=O)CCC(=O)N2CCCC23CCC3)ncc1Cl` [Compound 12-156], the EC50 was below 50 nM.
For `Cc1cc(NC(=O)[C@H](CCN)NC(=O)[C@@H]2Cc3ccccc3CN2C(=O)CCC(=O)N2CCCC2(C)C)ncc1Cl` [Compound 12-157], the concentration giving a half-maximal response (EC50) is below 50 nM.
Consider `Cc1cc(NC(=O)[C@H](CCN)NC(=O)[C@@H]2Cc3ccccc3CN2C(=O)CCC(=O)N2CCCC3(CCC3)C2)ncc1Cl` [Compound 12-158], for which the concentration giving a half-maximal response (EC50) is below 50 nM.
On to `Cc1cc(NC(=O)[C@H](CCN)NC(=O)[C@@H]2Cc3ccccc3CN2C(=O)CCC(=O)N2CCC(C)(C)CC2)ncc1Cl` [Compound 12-159], for which the EC50 was below 50 nM.
With `O=C(CCC(=O)N1Cc2ccccc2C[C@H]1C(=O)NC1(C(=O)Nc2ccc3c(c2)CCC3)CCNCC1)c1ccccc1` [Compound 13-1], the concentration giving a half-maximal response (EC50) is below 50 nM.
Turning to `Cc1ccc(NC(=O)C2(NC(=O)[C@@H]3Cc4ccccc4CN3C(=O)CCC(=O)c3ccccc3)CCNCC2)c(F)c1` [Compound 13-2], the EC50 lay in the range of 50 to 250 nM.
Regarding `Cc1cccc(NC(=O)C2(NC(=O)[C@@H]3Cc4ccccc4CN3C(=O)CCC(=O)c3ccccc3)CCNCC2)c1F` [Compound 13-3], the EC50 fell in the range of 50 to 250 nM.
For the compound `COc1cc(Cl)ccc1NC(=O)[C@H](CCN)NC(=O)[C@@H]1Cc2ccccc2CN1C(=O)CCC(=O)c1ccccc1` [Compound 13-4], the EC50 is 50 to 250 nM.
As for `CCc1cccc(NC(=O)[C@H](CCN)NC(=O)[C@@H]2Cc3ccccc3CN2C(=O)CCC(=O)c2ccccc2)c1OC` [Compound 13-5], the figure is 50 to 250 nM; as for `COc1cc(F)ccc1NC(=O)[C@H](CCN)NC(=O)[C@@H]1Cc2ccccc2CN1C(=O)CCC(=O)c1ccccc1` [Compound 13-6], above 500 nM.
As for `Cc1ccc(NC(=O)[C@H](CCN)NC(=O)[C@@H]2Cc3ccccc3CN2C(=O)CCC(=O)c2ccccc2)c(OC(F)(F)F)c1` [Compound 13-7], the figure is 50 to 250 nM; as for `NCC[C@H](NC(=O)[C@@H]1Cc2ccccc2CN1C(=O)CCC(=O)c1ccccc1)C(=O)Nc1cc(F)ccc1Cl` [Compound 14-1, (S)—N—((S)-4-amino-1-((2-chloro-5-fluorophenyl)amino)-1-oxobutan-2-yl)-2-(4-oxo-4-phenylbutanoyl)-1,2,3,4-tetrahydroisoquinoline-3-carboxamide], 250 to 500 nM.
`NCC[C@H](NC(=O)[C@@H]1Cc2ccccc2CN1C(=O)CCC(=O)c1ccccc1)C(=O)Nc1cc(Cl)c(Cl)cc1C(F)(F)F` [Compound 14-2]: the EC50 was below 50 nM.
For `Cc1c(Cl)ccc(NC(=O)[C@H](CCN)NC(=O)[C@@H]2Cc3ccccc3CN2C(=O)CCC(=O)c2ccccc2)c1Cl` [Compound 14-3], the EC50 was below 50 nM.
For `NCC[C@H](NC(=O)[C@@H]1Cc2ccccc2CN1C(=O)CCC(=O)c1ccccc1)C(=O)Nc1cc(Cl)c(Cl)c(Cl)c1` [Compound 14-4], the EC50 was below 50 nM.
With `Cc1cccc(F)c1NC(=O)[C@H](CCN)NC(=O)[C@@H]1Cc2ccccc2CN1C(=O)CCC(=O)c1ccccc1` [Compound 14-5], the EC50 is 250 to 500 nM.
For `Cc1cccc(NC(=O)[C@H](CCN)NC(=O)[C@@H]2Cc3ccccc3CN2C(=O)CCC(=O)c2ccccc2)c1Cl` [Compound 14-6], the EC50 is below 50 nM.
With `NCC[C@H](NC(=O)[C@@H]1Cc2ccccc2CN1C(=O)CCC(=O)c1ccccc1)C(=O)Nc1c(Cl)cccc1Cl` [Compound 14-7], the concentration giving a half-maximal response (EC50) is above 500 nM.
`NCC[C@H](NC(=O)[C@@H]1Cc2ccccc2CN1C(=O)CCC(=O)c1ccccc1)C(=O)Nc1cccc(Cl)c1Cl` [Compound 14-8]: the EC50 is below 50 nM.
For the compound `NCC[C@H](NC(=O)[C@@H]1Cc2ccccc2CN1C(=O)CCC(=O)c1ccccc1)C(=O)Nc1c(F)cccc1Cl` [Compound 14-9], the EC50 fell in the range of 250 to 500 nM.
As to `Cc1cccc(Cl)c1NC(=O)[C@H](CCN)NC(=O)[C@@H]1Cc2ccccc2CN1C(=O)CCC(=O)c1ccccc1` [Compound 14-10], the EC50 was above 500 nM.
Regarding `NCC[C@H](NC(=O)[C@@H]1Cc2ccccc2CN1C(=O)CCC(=O)c1ccccc1)C(=O)Nc1cc(Cl)ccc1Cl` [Compound 14-11], the half-maximal effective concentration (EC50) lay within 50 to 250 nM.
As for `NCC[C@H](NC(=O)[C@@H]1Cc2ccccc2CN1C(=O)CCC(=O)c1ccccc1)C(=O)Nc1ccc(Cl)cc1C(F)(F)F` [Compound 14-12], the figure is 50 to 250 nM; as for `Cc1ccc(NC(=O)[C@H](CCN)NC(=O)[C@@H]2Cc3ccccc3CN2C(=O)CCC(=O)c2ccccc2)c(C(F)(F)F)c1` [Compound 14-13], 250 to 500 nM; as for `NCC[C@H](NC(=O)[C@@H]1Cc2ccccc2CN1C(=O)CCC(=O)c1ccccc1)C(=O)Nc1cc(Cl)ccc1C(F)(F)F` [Compound 14-14], 50 to 250 nM.
Regarding `NCC[C@H](NC(=O)[C@@H]1Cc2ccccc2CN1C(=O)CCC(=O)c1ccccc1)C(=O)Nc1ccccc1C(F)(F)F` [Compound 14-15], the EC50 was in the range of 250 to 500 nM.
As to `NCC[C@H](NC(=O)[C@@H]1Cc2ccccc2CN1C(=O)CCC(=O)c1ccccc1)C(=O)Nc1cccc(Cl)c1C(F)(F)F` [Compound 14-16], the EC50 lay in the range of 250 to 500 nM.
Turning to `Cc1cccc(NC(=O)[C@H](CCN)NC(=O)[C@@H]2Cc3ccccc3CN2C(=O)CCC(=O)c2ccccc2)c1C#N` [Compound 14-19], the 50% effective concentration (EC50) lay in the range of 50 to 250 nM.
For `Cc1ccc(C#N)cc1NC(=O)[C@H](CCN)NC(=O)[C@@H]1Cc2ccccc2CN1C(=O)CCC(=O)c1ccccc1` [Compound 14-20], the concentration giving a half-maximal response (EC50) was 250 to 500 nM.
For `CCc1c(Cl)ccc(NC(=O)[C@H](CCN)NC(=O)[C@@H]2Cc3ccccc3CN2C(=O)CCC(=O)c2ccccc2)c1Cl` [Compound 14-21], the EC50 was 50 to 250 nM.
As to `[N-]=[N+]=NCC[C@H](NC(=O)[C@@H]1Cc2ccccc2CN1C(=O)CCC(=O)c1ccccc1)C(=O)Nc1ccc(Cl)c(Cl)c1F` [Compound 14-22, (S)—N—((S)-4-azido-1-((3,4-dichloro-2-fluorophenyl)amino)-1-oxobutan-2-yl)-2-(4-oxo-4-phenylbutanoyl)-1,2,3,4-tetrahydroisoquinoline-3-carboxamide], the EC50 was in the range of 250 to 500 nM.
Consider `NCC[C@H](NC(=O)[C@@H]1Cc2ccccc2CN1C(=O)CCC(=O)c1ccccc1)C(=O)Nc1ccc(Cl)cc1OC(F)(F)F` [Compound 14-23], for which the EC50 was in the range of 50 to 250 nM.
For the compound `Cc1cc(OC(F)(F)F)c(NC(=O)[C@H](CCN)NC(=O)[C@@H]2Cc3ccccc3CN2C(=O)CCC(=O)c2ccccc2)cc1Cl` [Compound 14-24], the EC50 was below 50 nM.
For the compound `Cc1ccc(OC(F)(F)F)c(NC(=O)[C@H](CCN)NC(=O)[C@@H]2Cc3ccccc3CN2C(=O)CCC(=O)c2ccccc2)c1` [Compound 14-25], the EC50 was below 50 nM.
Consider `N#Cc1c(NC(=O)[C@H](CCN)NC(=O)[C@@H]2Cc3ccccc3CN2C(=O)CCC(=O)c2ccccc2)ccc(Cl)c1Cl` [Compound 14-26], for which the EC50 is 50 to 250 nM.
For the compound `COc1c(NC(=O)[C@H](CCN)NC(=O)[C@@H]2Cc3ccccc3CN2C(=O)CCC(=O)c2ccccc2)ccc(Cl)c1Cl` [Compound 14-27], the EC50 is above 500 nM.
On to `NCC[C@@H](NC(=O)[C@@H]1Cc2ccccc2CN1C(=O)CCC(=O)c1ccccc1)C(=O)Nc1ccc(Cl)c(Cl)c1F` [Compound 14-29], for which the EC50 fell in the range of 250 to 500 nM.
Consider `CC1(C)CCN(C(=O)CCC(=O)N2Cc3ccccc3C[C@H]2C(=O)N[C@@H](CCN)C(=O)Nc2ccc(Cl)c(Cl)c2F)CC1` [Compound 15-1, (S)—N—((S)-4-amino-1-((3,4-dichloro-2-fluorophenyl)amino)-1-oxobutan-2-yl)-2-(4-(4,4-dimethylpiperidin-1-yl)-4-oxobutanoyl)-1,2,3,4-tetrahydroisoquinoline-3-carboxamide], for which the EC50 is below 50 nM.
In the case of `CC1(C)CCCN1C(=O)CCC(=O)N1Cc2ccccc2C[C@H]1C(=O)N[C@@H](CCN)C(=O)Nc1ccc(Cl)c(Cl)c1F` [Compound 15-4], the EC50 is below 50 nM.
On to `CC1CN(C(=O)CCC(=O)N2Cc3ccccc3C[C@H]2C(=O)N[C@@H](CCN)C(=O)Nc2ccc(Cl)c(Cl)c2F)CCN1C` (some centres unmarked) [Compound 15-5], for which the EC50 is below 50 nM.
In the case of `NCC[C@H](NC(=O)[C@@H]1Cc2ccccc2CN1C(=O)CCC(=O)N1CCCCC12CCC2)C(=O)Nc1ccc(Cl)c(Cl)c1F` [Compound 15-7] it was below 50 nM; in that of `NCC[C@H](NC(=O)[C@@H]1Cc2ccccc2CN1C(=O)CCC(=O)N1CCc2ccccc2C1)C(=O)Nc1ccc(Cl)c(Cl)c1F` [Compound 15-8], below 50 nM.
As for `CC(C)C1CCN(C(=O)CCC(=O)N2Cc3ccccc3C[C@H]2C(=O)N[C@@H](CCN)C(=O)Nc2ccc(Cl)c(Cl)c2F)C1` (some centres unmarked) [Compound 15-9], the figure is below 50 nM; as for `CC(C)C1CCCN1C(=O)CCC(=O)N1Cc2ccccc2C[C@H]1C(=O)N[C@@H](CCN)C(=O)Nc1ccc(Cl)c(Cl)c1F` (some centres unmarked) [Compound 15-10], below 50 nM; as for `CC1(C)COCCN1C(=O)CCC(=O)N1Cc2ccccc2C[C@H]1C(=O)N[C@@H](CCN)C(=O)Nc1ccc(Cl)c(Cl)c1F` [Compound 15-11], below 50 nM.
As for `NCC[C@H](NC(=O)[C@@H]1Cc2ccccc2CN1C(=O)CCC(=O)N1CCC2(CC1)COC2)C(=O)Nc1ccc(Cl)c(Cl)c1F` [Compound 15-12], the EC50 lay in the range of 250 to 500 nM.
